The target of the test is T1, human GPR119 (Homo sapiens, UniProt Q8TDV5).
T1 construct: expressed in transfected cells
T1 sequence (Q8TDV5 1-335): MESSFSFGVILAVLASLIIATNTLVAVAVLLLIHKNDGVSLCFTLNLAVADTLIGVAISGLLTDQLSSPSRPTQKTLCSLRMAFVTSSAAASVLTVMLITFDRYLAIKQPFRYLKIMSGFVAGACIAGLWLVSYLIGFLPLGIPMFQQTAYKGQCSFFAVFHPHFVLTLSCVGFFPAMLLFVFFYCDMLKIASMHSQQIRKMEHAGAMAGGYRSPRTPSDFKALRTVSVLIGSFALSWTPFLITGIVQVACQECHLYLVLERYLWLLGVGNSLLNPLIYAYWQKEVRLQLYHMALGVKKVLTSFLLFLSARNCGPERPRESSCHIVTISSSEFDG
The test is described as follows: Cyclic AMP assay in stable cell line (Flp-In-CHO-hGPR119, HTRF). Type of test: cell-based. Conditions: Flp-In-CHO-hGPR119 cells, intracellular cAMP by HTRF, 1 mM IBMX, 37° C. for 30 minutes. As to the method:
Flp-In-CHO cells (Invitrogen, Cat.# R758-07) are maintained in Ham's F12 medium supplemented with 10% fetal bovine serum, 1% antibiotic mixture and 2 mM L-glutamine. The cells are transfected with a DNA mixture containing human GPR119 in pcDNA5/FRT vector and the pOG44 vector (1:9) using Fugene6 (Roche), according to the manufacturer's instruction. After 48 hours, the medium is changed to medium supplemented with 400 μg/ml hygromycin B to initiate the selection of stably transfected cells.
To test the activity of compounds of the invention, Flp-In-CHO-hGPR119 cells are harvested and resuspended in DMEM plus 3% lipid-depleted fetal bovine serum. Forth μl of cells are plated in 384 well plates at a density of 15,000 cells/well. IBMX (3-isobutyl-1-methyl-xanthine) is added to the cells to a final concentration of 1 mM, followed by the addition of 500 nl of the compound to be tested. The cells are incubated at 37° C. for 30 minutes. Equal volume (20 μl) of the HTRF reagents, anti-cAMP-Cryptate and cAMP-XL665, are added to the cells. The plates are incubated at room temperature for 1 hour and read on a HTRF reader according to the manufacturer's instruction.
Broadly, the EC50 is the concentration needed to bring the measured effect to its halfway point. Low readings indicate a more potent agent, high ones a less potent agent. Regarding `CCc1cnc(N2CCC(C(C)OC3CN(c4ncc5c(n4)CCN(S(C)(=O)=O)C5)C3)CC2)nc1` (racemic) [Example H1, (±)-2-(3-(1-(1-(5-Ethylpyrimidin-2-yl)piperidin-4-yl)ethoxy)azetidin-1-yl)-6-(methylsulfonyl)-5,6,7,8-tetrahydropyrido[4,3-d]pyrimidine], the response was half-maximal at 183 nM (EC50).
In turn, `CO[C@H]1CN(C(=O)OC2(C)CC2)CC[C@H]1COC1CN(c2ncc3c(n2)CCN(S(C)(=O)=O)C3)C1` (racemic) [Example J1, (±)-(3R,45)-1-Methylcyclopropyl 3-methoxy-4-((1-(6-(methylsulfonyl)-5,6,7,8-tetrahydropyrido[4,3-d]pyrimidin-2-yl)azetidin-3-yloxy)methyl)piperidine-1-carboxylate] yielded an EC50 of 711 nM.
`CC(C)OC(=O)N1CCC(Oc2nccc3c2CCN(S(C)(=O)=O)C3)CC1` [Example A4, isopropyl 4-(6-(methylsulfonyl)-5,6,7,8-tetrahydro-2,6-naphthyridin-1-yloxy)piperidine-1-carboxylate] registered an EC50 of 3710 nM.
In the case of `CC(C)OC(=O)N1CCC(N2CCC3CN(S(C)(=O)=O)CCC3C2=O)CC1` (centres unmarked) [Example A5, isopropyl 4-(6-(methylsulfonyl)-1-oxooctahydro-2,6-naphthyridin-2(1H)-yl)piperidine-1-carboxylate], a half-maximal response (EC50) required 4360 nM.
Turning to `CC(C)OC(=O)N1CCC(CCCCn2ccc3c(c2=O)CCN(S(C)(=O)=O)C3)CC1` [Example A7, isopropyl 4-(4-(6-(methylsulfonyl)-1-oxo-5,6,7,8-tetrahydro-2,6-naphthyridin-2(1H)-yl)butyl)piperidine-1-carboxylate], a half-maximal effect (EC50) was put at 94 nM.
`CC(C)OC(=O)N1CCC(CCCCOC2=NCCC3CN(S(C)(=O)=O)CCC23)CC1` (centres unmarked) [Example A8, isopropyl 4-(4-(6-(methylsulfonyl)-3,4,4a,5,6,7,8,8a-octahydro-2,6-naphthyridin-1-yloxy)butyl)piperidine-1-carboxylate] returned an EC50 of 137 nM.
With `CC(C)OC(=O)N1CCC(CCCCOc2nccc3c2CCN(S(C)(=O)=O)C3)CC1` [Example A9, isopropyl 4-(4-(6-(methylsulfonyl)-5,6,7,8-tetrahydro-2,6-naphthyridin-1-yloxy)butyl)piperidine-1-carboxylate], the EC50 worked out at 191 nM.
`CS(=O)(=O)N1CCc2nc(CNCCc3cccc(Br)c3)ncc2C1` [Example B3, 2-(3-bromophenyl)-N-((6-(methylsulfonyl)-5,6,7,8-tetrahydropyrido[4,3-d]pyrimidin-2-yl)methyl)ethanamine] yielded an EC50 of 2440 nM.
The compound `CC1(OC(=O)N2CCC(CCOCc3ncc4c(n3)CCN(S(C)(=O)=O)C4)CC2)CC1` [Example C1, 1-Methylcyclopropyl 4-(2-((6-(methylsulfonyl)-5,6,7,8-tetrahydropyrido[4,3-d]pyrimidin-2-yl)methoxy)ethyl)piperidine-1-carboxylate] displayed an EC50 of 514 nM.
Regarding `CC1(OC(=O)N2CCC(CCCOc3ncc4c(n3)CCN(S(C)(=O)=O)C4)CC2)CC1` [Example D2, 1-Methylcyclopropyl 4-(3-(6-(methylsulfonyl)-5,6,7,8-tetrahydropyrido[4,3-d]pyrimidin-2-yloxy)propyl)piperidine-1-carboxylate], the EC50 was found to be 2 nM.
The value for `CCc1cnc(N2CCC(CCCOc3ncc4c(n3)CCN(S(C)(=O)=O)C4)CC2)nc1` [Example D3, 2-(3-(1-(5-Ethylpyrimidin-2-yl)piperidin-4-yl)propoxy)-6-(methylsulfonyl)-5,6,7,8-tetrahydropyrido[4,3-d]pyrimidine] was 4 nM.
Take `CC(C)c1noc(N2CCC(CCCNc3ncc4c(n3)CCN(S(C)(=O)=O)C4)CC2)n1` [Example D4, N-(3-(1-(3-isopropyl-1,2,4-oxadiazol-5-yl)piperidin-4-yl)propyl)-6-(methylsulfonyl)-5,6,7,8-tetrahydropyrido[4,3-d]pyrimidin-2-amine]: the EC50 was found to be 6 nM.
Then `CCc1cnc(N2CCC(CCCNc3ncc4c(n3)CCN(S(C)(=O)=O)C4)CC2)nc1` [Example D5, N-(3-(1-(5-Ethylpyrimidin-2-yl)piperidin-4-yl)propyl)-6-(methylsulfonyl)-5,6,7,8-tetrahydropyrido[4,3-d]pyrimidin-2-amine], with 7 nM; and `CC1(OC(=O)N2CCC(CCCNc3ncc4c(n3)CCN(S(C)(=O)=O)C4)CC2)CC1` [Example D7, 1-methylcyclopropyl 4-(3-(6-(methylsulfonyl)-5,6,7,8-tetrahydropyrido[4,3-d]pyrimidin-2-ylamino)propyl)piperidine-1-carboxylate], with 8 nM; and `CN(CCCC1CCN(C(=O)OC2(C)CC2)CC1)c1ncc2c(n1)CCN(S(C)(=O)=O)C2` [Example D8, 1-methylcyclopropyl 4-(3-(methyl(6-(methylsulfonyl)-5,6,7,8-tetrahydropyrido[4,3-d]pyrimidin-2-yl)amino)propyl)piperidine-1-carboxylate], with 10 nM.
With `CCc1cnc(N2CCC(CCCOc3ncc4c(n3)CCN(S(=O)(=O)CCCO)C4)CC2)nc1` [Example D9, 3-(2-{3-[1-(5-ethylpyrimidin-2-yl)piperidin-4-yl]propoxy}-5H,6H,7H,8H-pyrido[4,3-d]pyrimidine-6-sulfonyl)propan-1-ol], a half-maximal response (EC50) required 5 nM.
In turn, `CCc1cnc(N2CCC(OCCOc3ncc4c(n3)CCN(S(C)(=O)=O)C4)CC2)nc1` [Example E1, 2-(2-(1-(5-ethylpyrimidin-2-yl)piperidin-4-yloxy)ethoxy)-6-(methylsulfonyl)-5,6,7,8-tetrahydropyrido[4,3-d]pyrimidine] returned an EC50 of 212 nM.
`CCc1cnc(N2CCC(CCCOc3ccc4c(n3)CCN(S(C)(=O)=O)C4)CC2)nc1` [Example F1, 2-(3-(1-(5-Ethylpyrimidin-2-yl)piperidin-4-yl)propoxy)-6-(methylsulfonyl)-5,6,7,8-tetrahydro-1,6-naphthyridine] yielded an EC50 of 27 nM.
The value for `CCc1cnc(N2CCC(COC3CN(c4ncc5c(n4)CCN(S(C)(=O)=O)C5)C3)CC2)nc1` [Example G1, 2-(3-((1-(5-Ethylpyrimidin-2-yl)piperidin-4-yl)methoxy)azetidin-1-yl)-6-(methylsulfonyl)-5,6,7,8-tetrahydropyrido[4,3-d]pyrimidine] was 9 nM; that for `CCc1cnc(N2CCC(COCC3CN(c4ncc5c(n4)CCN(S(C)(=O)=O)C5)C3)CC2)nc1` [Example G5] was 666 nM.
The value for `CC1(OC(=O)N2CCC(COC3CN(c4ncc5c(n4)CCN(S(C)(=O)=O)C5)C3)CC2)CC1` [Example G6] was 28 nM; that for `CC(C)(C)OC(=O)N1CC(OCC2CCN(c3ncc4c(n3)CCN(S(C)(=O)=O)C4)CC2)C1` [Example G7] was 22 nM; that for `CCc1cnc(N2CCC(COC3CCN(c4ncc5c(n4)CCN(S(C)(=O)=O)C5)CC3)CC2)nc1` [Example G9] was 317 nM.
In the case of `CC(C)c1noc(N2CCC(COC3CN(c4ncc5c(n4)CCN(S(C)(=O)=O)C5)C3)CC2)n1` [Example G11], the EC50 was 170 nM.
Then `CCc1cnc(-c2ccc(CCCOc3ncc4c(n3)CCN(S(C)(=O)=O)C4)cc2)nc1` [Example G15, 5-ethyl-2-{4-[3-({6-methanesulfonyl-5H,6H,7H,8H-pyrido[4,3-d]pyrimidin-2-yl}oxy)propyl]phenyl}pyrimidine], with 366 nM; and `CS(=O)(=O)N1CCc2nc(OCCCc3ccc(-n4cccn4)nc3)ncc2C1` [Example G16, 5-[3-({6-methanesulfonyl-5H,6H,7H,8H-pyrido[4,3-d]pyrimidin-2-yl}oxy)propyl]-2-(1H-pyrazol-1-yl)pyridine], with 1020 nM.
For `CC1(OC(=O)N2CCC(Cc3cn(-c4ncc5c(n4)CCN(S(C)(=O)=O)C5)cn3)CC2)CC1` [Example G18, 1-methylcyclopropyl 4-[(1-{6-methanesulfonyl-5H,6H,7H,8H-pyrido[4,3-d]pyrimidin-2-yl}-1H-imidazol-4-yl)methyl]piperidine-1-carboxylate], a half-maximal effect (EC50) was put at 122 nM.
Then `CCc1cnc(N2CCc3c(cccc3OC3CN(c4ncc5c(n4)CCN(S(C)(=O)=O)C5)C3)C2)nc1` [Example I1, 2-(3-(2-(5-Ethylpyrimidin-2-yl)-1,2,3,4-tetrahydroisoquinolin-5-yloxy)azetidin-1-yl)-6-(methylsulfonyl)-5,6,7,8-tetrahydropyrido[4,3-d]pyrimidine], with 49 nM; and `C[C@H]1CN(C(=O)OC2(C)CC2)CC[C@H]1COC1CN(c2ncc3c(n2)CCN(S(C)(=O)=O)C3)C1` [Example J2, 1-methylcyclopropyl(3R,4R)-4-{[(1-{6-methanesulfonyl-5H,6H,7H,8H-pyrido[4,3-d]pyrimidin-2-yl}azetidin-3-yl)oxy]methyl}-3-methylpiperidine-1-carboxylate], with 174 nM.

The record behind these values is patent US20110190263A1, “COMPOUNDS AND COMPOSITIONS AS MODULATORS OF GPR119 ACTIVITY” (IRM LLC, priority 2008, published 2011).
